Test results: paper PMC9410420, “Novel Labdane Diterpenes-Based Synthetic Derivatives: Identification of a Bifunctional Vasodilator That Inhibits CaV1.2 and Stimulates KCa1.1 Channels” (Marine Drugs, 2022)

Legend:
CaV1.2 channel = target: T1, CaV1.2 channel (Rattus norvegicus, UniProt P22002); assay: Voltage dependence of CaV1.2 channel steady-state activation and inactivation in rat tail artery myocytes; format: cell-based; settings: for Slope inact (slope factor of inactivation) / V50 inact (50% inactivation potential): Vh −80 mV
T1 construct: smooth muscle cells were freshly isolated; endogenous in cells; host or cells: freshly isolated rat tail main artery smooth muscle cells
T1 sequence (P22002 whole entry): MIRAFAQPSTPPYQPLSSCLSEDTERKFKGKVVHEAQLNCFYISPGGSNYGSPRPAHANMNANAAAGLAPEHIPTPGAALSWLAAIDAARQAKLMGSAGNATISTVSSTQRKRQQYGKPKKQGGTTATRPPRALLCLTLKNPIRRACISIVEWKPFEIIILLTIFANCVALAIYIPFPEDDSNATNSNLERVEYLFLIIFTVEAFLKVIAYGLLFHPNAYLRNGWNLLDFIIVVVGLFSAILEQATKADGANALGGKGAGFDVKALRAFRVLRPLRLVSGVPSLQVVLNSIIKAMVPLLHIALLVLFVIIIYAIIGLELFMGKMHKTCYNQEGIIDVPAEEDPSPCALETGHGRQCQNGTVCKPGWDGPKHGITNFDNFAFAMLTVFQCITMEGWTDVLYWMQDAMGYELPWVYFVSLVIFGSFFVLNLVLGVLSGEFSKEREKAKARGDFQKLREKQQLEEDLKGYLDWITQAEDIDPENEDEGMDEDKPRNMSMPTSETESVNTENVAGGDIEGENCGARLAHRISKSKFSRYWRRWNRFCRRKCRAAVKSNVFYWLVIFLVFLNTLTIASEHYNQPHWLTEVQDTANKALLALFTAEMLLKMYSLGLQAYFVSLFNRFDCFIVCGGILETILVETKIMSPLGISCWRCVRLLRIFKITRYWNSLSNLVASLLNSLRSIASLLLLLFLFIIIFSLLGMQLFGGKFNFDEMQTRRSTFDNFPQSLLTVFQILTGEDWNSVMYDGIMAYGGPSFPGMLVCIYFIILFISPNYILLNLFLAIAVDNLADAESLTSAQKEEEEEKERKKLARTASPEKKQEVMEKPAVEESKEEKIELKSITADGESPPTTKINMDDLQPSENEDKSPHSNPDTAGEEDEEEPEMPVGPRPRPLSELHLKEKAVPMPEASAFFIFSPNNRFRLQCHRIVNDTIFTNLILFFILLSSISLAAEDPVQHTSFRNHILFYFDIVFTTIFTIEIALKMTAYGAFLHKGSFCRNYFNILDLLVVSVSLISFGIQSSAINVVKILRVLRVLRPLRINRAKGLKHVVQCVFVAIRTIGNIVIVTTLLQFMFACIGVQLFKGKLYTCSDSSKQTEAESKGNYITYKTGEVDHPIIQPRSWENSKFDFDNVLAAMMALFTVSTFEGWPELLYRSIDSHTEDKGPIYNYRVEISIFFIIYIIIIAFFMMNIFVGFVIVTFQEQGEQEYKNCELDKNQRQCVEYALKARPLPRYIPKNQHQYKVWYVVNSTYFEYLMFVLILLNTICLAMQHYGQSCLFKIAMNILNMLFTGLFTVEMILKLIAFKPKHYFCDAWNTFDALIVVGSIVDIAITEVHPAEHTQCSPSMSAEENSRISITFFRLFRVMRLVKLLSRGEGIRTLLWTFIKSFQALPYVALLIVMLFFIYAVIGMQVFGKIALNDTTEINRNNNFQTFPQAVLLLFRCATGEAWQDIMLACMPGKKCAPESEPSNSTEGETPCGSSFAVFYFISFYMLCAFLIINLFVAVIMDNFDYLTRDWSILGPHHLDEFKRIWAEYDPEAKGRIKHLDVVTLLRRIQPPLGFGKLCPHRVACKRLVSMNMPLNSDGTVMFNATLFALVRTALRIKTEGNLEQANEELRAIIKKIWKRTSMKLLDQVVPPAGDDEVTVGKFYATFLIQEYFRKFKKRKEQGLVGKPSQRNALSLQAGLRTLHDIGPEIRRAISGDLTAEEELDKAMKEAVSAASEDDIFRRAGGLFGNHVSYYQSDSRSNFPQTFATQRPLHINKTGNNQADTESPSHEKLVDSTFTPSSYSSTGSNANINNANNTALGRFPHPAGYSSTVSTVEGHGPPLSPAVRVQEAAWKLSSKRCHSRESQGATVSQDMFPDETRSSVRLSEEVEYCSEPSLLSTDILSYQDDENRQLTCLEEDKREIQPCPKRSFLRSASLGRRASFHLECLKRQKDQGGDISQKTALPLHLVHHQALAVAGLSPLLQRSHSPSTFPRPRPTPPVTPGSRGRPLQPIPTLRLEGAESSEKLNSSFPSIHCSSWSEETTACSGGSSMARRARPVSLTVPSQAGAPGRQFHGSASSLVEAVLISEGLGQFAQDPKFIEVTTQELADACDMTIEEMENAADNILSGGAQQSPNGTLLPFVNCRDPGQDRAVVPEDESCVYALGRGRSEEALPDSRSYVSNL
T1 sequence (P54290 25-944 partner limits assumed): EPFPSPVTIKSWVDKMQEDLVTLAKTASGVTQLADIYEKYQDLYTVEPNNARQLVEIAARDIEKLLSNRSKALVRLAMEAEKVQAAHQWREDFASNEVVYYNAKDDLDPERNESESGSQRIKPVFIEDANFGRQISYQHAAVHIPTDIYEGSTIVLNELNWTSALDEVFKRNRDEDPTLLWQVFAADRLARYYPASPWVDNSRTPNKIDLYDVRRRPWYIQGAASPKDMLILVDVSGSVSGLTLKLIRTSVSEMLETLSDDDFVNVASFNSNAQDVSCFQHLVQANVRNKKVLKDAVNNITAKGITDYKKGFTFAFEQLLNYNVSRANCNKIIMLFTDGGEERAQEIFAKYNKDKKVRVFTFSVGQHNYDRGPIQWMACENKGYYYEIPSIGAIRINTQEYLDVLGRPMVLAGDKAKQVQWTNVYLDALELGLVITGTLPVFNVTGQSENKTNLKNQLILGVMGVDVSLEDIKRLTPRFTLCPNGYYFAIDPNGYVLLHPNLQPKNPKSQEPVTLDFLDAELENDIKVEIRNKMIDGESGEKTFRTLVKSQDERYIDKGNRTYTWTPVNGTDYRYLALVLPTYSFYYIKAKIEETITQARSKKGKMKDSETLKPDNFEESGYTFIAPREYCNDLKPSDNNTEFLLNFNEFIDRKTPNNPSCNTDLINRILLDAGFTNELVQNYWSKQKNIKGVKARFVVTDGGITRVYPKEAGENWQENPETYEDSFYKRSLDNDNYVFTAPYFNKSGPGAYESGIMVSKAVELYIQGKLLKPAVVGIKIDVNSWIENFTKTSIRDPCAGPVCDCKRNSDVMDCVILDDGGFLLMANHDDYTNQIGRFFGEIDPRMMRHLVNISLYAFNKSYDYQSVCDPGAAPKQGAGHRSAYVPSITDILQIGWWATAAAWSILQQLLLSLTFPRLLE
T1 sequence (P54290 945-1091 partner limits assumed): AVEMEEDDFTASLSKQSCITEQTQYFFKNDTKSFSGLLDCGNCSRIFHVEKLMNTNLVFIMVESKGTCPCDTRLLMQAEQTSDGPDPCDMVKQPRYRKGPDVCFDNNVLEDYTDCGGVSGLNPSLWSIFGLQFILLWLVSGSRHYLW
T1 sequence (P54287 whole entry partner): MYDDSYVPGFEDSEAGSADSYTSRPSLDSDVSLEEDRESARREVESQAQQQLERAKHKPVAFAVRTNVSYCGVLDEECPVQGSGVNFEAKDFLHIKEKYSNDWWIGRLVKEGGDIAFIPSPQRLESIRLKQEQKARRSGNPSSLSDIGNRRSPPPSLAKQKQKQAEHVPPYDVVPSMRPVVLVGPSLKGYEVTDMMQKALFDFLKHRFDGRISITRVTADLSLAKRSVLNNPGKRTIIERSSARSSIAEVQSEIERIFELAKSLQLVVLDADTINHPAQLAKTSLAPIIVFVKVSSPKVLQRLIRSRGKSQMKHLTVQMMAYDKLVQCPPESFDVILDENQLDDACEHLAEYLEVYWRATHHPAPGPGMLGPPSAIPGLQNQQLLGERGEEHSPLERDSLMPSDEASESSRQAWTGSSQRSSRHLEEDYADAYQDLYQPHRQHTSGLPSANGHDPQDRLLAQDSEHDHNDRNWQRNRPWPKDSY
From the text: An Axopatch 200B patch-clamp amplifier (Molecular Devices Corporation, Sunnyvale, CA, USA) was used to generate and apply voltage pulses to the clamped cells and record the corresponding membrane currents. Recording electrodes were pulled from borosilicate glass capillaries (WPI, Berlin, Germany) and fire-polished to obtain a pipette resistance of 2–4 MΩ, when filled with an internal solution. At the beginning of each experiment, the junction potential between the pipette and bath solution was electronically adjusted to zero. After compensation for whole-cell capacitance and series resistance (between 70% and 75%), current signals were low-pass filtered at 1 kHz and digitized at 3 kHz, before being stored on a computer hard disk. Electrophysiological responses were tested at room temperature (20–22 °C).
Cells were continuously superfused with an external solution containing 0.1 mM Ca^2+ and 30 mM TEA using a peristaltic pump (LKB 2132, Bromma, Sweden) at a flow rate of 400 µL/min. The conventional whole-cell patch-clamp method was employed to voltage-clamp smooth muscle cells. The internal solution consisted of (in mM) 100 CsCl, 10 HEPES, 11 EGTA, 2 MgCl2, 1 CaCl2 (pCa 8.4), 5 Na pyruvate, 5 succinic acid, 5 oxaloacetic acid, 3 Na2ATP, and 5 phosphocreatine; pH was adjusted to 7.4 with CsOH. IBa1.2 was recorded in an external solution containing 30 mM TEA and 5 mM Ba^2+. The current was elicited with 250-ms clamp pulses (0.067 Hz) to 10 mV, from a Vh of −50 mV. Data were collected once the current amplitude had been stabilized (usually 7–10 min after the whole-cell configuration had been obtained).
Steady-state activation curves were derived from the current–voltage relationships. Conductance (G) was calculated from the equation G = IBa1.2/(Em − Erev), where: IBa1.2 is the peak current elicited by depolarizing test pulses between −50 mV and 40 mV from a Vh of −50 mV; Em is the membrane potential; and Erev is the reversal potential (estimated from the extrapolated current-voltage curves in Figure 2). Gmax is the maximal Ba^2+ conductance (calculated at potentials ≤40 mV). The G/Gmax ratio was plotted against the membrane potential and fitted to the Boltzmann equation [40]. Steady-state inactivation curves were obtained using a double-pulse protocol. Once various levels of the conditioning potential had been applied for 5 s, followed by a short (5-ms) return to the Vh of −80 mV, a test pulse (250 ms) to 10 mV was delivered to evoke the current. The delay between the conditioning potential and the test pulse allowed the full or near-complete deactivation of the channels, simultaneously avoiding partial recovery from inactivation. K^+ currents were blocked with 30 mM TEA in the external solution and Cs^+ in the internal solution. […] The osmolarity of the 30 mM TEA- and 5 mM Ba^2+-containing external solution (320 mosmol, adjusted with NaCl if required) and that of the internal solution (290 mosmol) were measured with an osmometer (Osmostat OM 6020, Menarini Diagnostics, Florence, Italy).

[1] = tested on: Langendorff perfused rat heart; assay: Langendorff perfused rat heart (LVP, CPP, ECG); settings: for QRS (intraventricular conduction time): control 13.4 ± 0.7; for PQ (atrioventricular conduction time): control 37.8 ± 1.8; for QTc (corrected QT): control 72.97 ± 1.7; for RR (cycle length): control 231.4 ± 7.8; for HR (frequency): control 261.9 ± 9.6
Method: Spontaneously beating heart was retrogradely perfused via the aorta at a constant perfusion flow in a Langendorff apparatus (Radnoti, Dublin, Ireland) with a physiological salt solution containing (mM) NaCl 118, KCl 4.7, CaCl2 2.5, MgSO4 1.2, NaHCO3 25, KH2PO4 1.2, glucose 11.5, Na pyruvate 2, and EDTA 0.5, and bubbled with a 95% O2−5% CO2 gas mixture (pH 7.4), and kept at 37 °C, as described elsewhere. Hearts were allowed to equilibrate for at least 20 min before 7 exposure. Heart contractility was measured as left ventricle developed pressure (LVDP) using a deionized water-filled latex balloon, connected to a pressure transducer (BLPR, WPI, Berlin, Germany) and inserted into the left ventricular cavity through the mitral valve. A pressure transducer (BLPR, WPI, Berlin, Germany) was placed in the inflow line, to record coronary perfusion pressure (CPP), a measure of coronary vascular resistance. Two steel electrodes, one positioned on the left atrium and the other on the apex of the heart, were used to record the surface electrocardiogram. Heart rate (HR) and RR (cycle length), PQ (atrioventricular conduction time), QRS (intraventricular conduction time), and QT (ventricular depolarization and repolarization) intervals were measured. The digital PowerLab data acquisition system (PowerLab 8/30; ADInstruments, Castle Hill, Australia) and Chart Pro for Windows software v. 7.3.7 (PowerLab; ADInstruments, Castle Hill, Australia) were used to record and analyze LVP, CPP, and ECG. As the QT interval is affected by HR changes (e.g., it shortens when HR increases), Bazett's formula normalized to average rat RR (QTc = QT/(RR/f)1/2) was routinely used to correct it, thus avoiding confounding effects. In this study, “f” (the normalization factor according to the basal RR duration) was 231.4 ms, as this was the average cardiac cycle length.

CC1(C)CCC[C@]2(C)[C@@H](CC(=O)Nc3ccccc3-n3cccc3)[C@](C)(O)CC[C@@H]12 [Compound 7]
Slope act (slope factor of activation) (CaV1.2 channel; 10 µM compound): 8.36 ± 0.75 | Slope inact (slope factor of inactivation) (CaV1.2 channel; 10 µM compound): −7.53 ± 0.24 | V50 inact (50% inactivation potential) (CaV1.2 channel; 10 µM compound): −30.24 ± 1.29 mV | Ba2+ window current, potential of the peak (CaV1.2 channel; 10 µM, control peaked at −10 mV): about −15 mV | Ba2+ window current, relative amplitude at peak (CaV1.2 channel; 10 µM, control relative amplitude 0.078): 0.021 | Slope inact (slope factor of inactivation) (CaV1.2 channel; 30 µM compound): −7.70 ± 0.51 | V50 inact (50% inactivation potential) (CaV1.2 channel; 30 µM compound): −38.29 ± 2.00 mV | QRS (intraventricular conduction time) ([1]; 1 µM): 13.6 ± 0.5 ms | PQ (atrioventricular conduction time) ([1]; 1 µM): 37.2 ± 2.0 ms | QTc (corrected QT) ([1]; 1 µM): 71.59 ± 0.8 ms | RR (cycle length) ([1]; 1 µM): 230.8 ± 7.4 ms | HR (frequency) ([1]; 1 µM): 261.8 ± 9.4 bpm | QRS (intraventricular conduction time) ([1]; 3 µM): 14.0 ± 0.6 ms | PQ (atrioventricular conduction time) ([1]; 3 µM): 37.4 ± 1.9 ms | QTc (corrected QT) ([1]; 3 µM): 72.65 ± 1.3 ms | RR (cycle length) ([1]; 3 µM): 231.8 ± 7.1 ms | HR (frequency) ([1]; 3 µM): 256.9 ± 8.3 bpm | QRS (intraventricular conduction time) ([1]; 10 µM): 13.9 ± 0.6 ms | PQ (atrioventricular conduction time) ([1]; 10 µM): 39.0 ± 1.9 ms | QTc (corrected QT) ([1]; 10 µM): 73.31 ± 1.2 ms | RR (cycle length) ([1]; 10 µM): 236.4 ± 7.1 ms | HR (frequency) ([1]; 10 µM): 255.3 ± 8.0 bpm | QRS (intraventricular conduction time) ([1]; 30 µM): 15.2 ± 0.8 ms | PQ (atrioventricular conduction time) ([1]; 30 µM): 42.2 ± 2.7 ms | QTc (corrected QT) ([1]; 30 µM): 75.13 ± 1.7 ms | RR (cycle length) ([1]; 30 µM): 249.8 ± 10.7 ms | HR (frequency) ([1]; 30 µM): 242.8 ± 11.5 bpm | Effect on coronary perfusion pressure (CPP) ([1]; 1–30 µM, n = 5): significantly decreased CPP | Effect on left ventricular pressure (LVP) ([1]; 1–30 µM, n = 5): leaving LVP unaltered
